Experimental data: patent US6004950A, “2-aminopyridines as inhibitors of cyclooxygenase-2” (Merck Frosst Canada, Inc., priority 1998, dated 1999)
Where two headings read alike, the source gives them in different places.

What was measured:
COX-1 = COX-1 (Homo sapiens, UniProt P23219); assay: Assay of COX-1 activity from U937 cell microsomes; assay type: biochemical; set-up: Assay of COX-1 Activity from U937 cell microsomes; endogenous in cells; host or cells: U937 cells, 100,000×g microsomal pellet
Chain of COX-1 (P23219 24-599): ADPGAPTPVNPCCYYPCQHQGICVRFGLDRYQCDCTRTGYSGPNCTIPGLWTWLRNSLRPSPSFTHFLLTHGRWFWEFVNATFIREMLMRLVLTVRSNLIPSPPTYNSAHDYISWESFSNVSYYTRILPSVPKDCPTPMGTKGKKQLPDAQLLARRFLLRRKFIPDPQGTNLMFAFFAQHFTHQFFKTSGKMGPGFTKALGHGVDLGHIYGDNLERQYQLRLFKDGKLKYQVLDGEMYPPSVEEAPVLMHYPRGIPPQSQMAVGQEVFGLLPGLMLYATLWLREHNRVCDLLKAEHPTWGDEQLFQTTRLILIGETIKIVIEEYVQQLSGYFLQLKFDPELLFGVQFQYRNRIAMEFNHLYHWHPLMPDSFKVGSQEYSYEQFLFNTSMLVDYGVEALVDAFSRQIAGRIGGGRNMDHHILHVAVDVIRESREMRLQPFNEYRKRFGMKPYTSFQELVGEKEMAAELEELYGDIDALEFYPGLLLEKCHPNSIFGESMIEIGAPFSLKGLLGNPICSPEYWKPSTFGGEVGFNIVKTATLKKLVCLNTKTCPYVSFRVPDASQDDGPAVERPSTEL
Protocol: Assay of COX-1 Activity from U937 cell microsomes
U 937 cells are pelleted by centrifugation at 500×g for 5 min and washed once with phosphate-buffered saline and repelleted. Cells are resuspended in homogenization buffer consisting of 0.1 M Tris-HCl, pH 7.4, 10 mM EDTA, 2 μg/ml leupeptin, 2 μg/ml soybean trypsin inhibitor, 2 μg/ml aprotinin and 1 mM phenyl methyl sulfonyl fluoride. The cell suspension is sonicated 4 times for 10 sec and is centrifuged at 10,000×g for 10 min at 4° C. The supernatant is centrifuged at 100,000×g for 1 hr at 4° C. The 100,000×g microsomal pellet is resuspended in 0.1 M Tris-HCl, pH 7.4, 10 mM EDTA to approximately 7 mg protein/ml and stored at -80° C.
Microsomal preparations are thawed immediately prior to use, subjected to a brief sonication, and then diluted to a protein concentration of 125 μg/ml in 0.1 M Tris-HCl buffer, pH 7.4 containing 10 mM EDTA, 0.5 mM phenol, 1 mM reduced glutathione and 1 μM hematin. Assays are performed in duplicate in a final volume of 250 μl. Initially, 5 μl of DMSO vehicle or drug in DMSO are added to 20 μl of 0.1 M Tris-HCl buffer, pH 7.4 containing 10 mM EDTA in wells of a 96-deepwell polypropylene titre plate. 200 μl of the microsomal preparation are then added and pre-incubated for 15 min at room temperature before addition of 25 μl of […] arachidonic acid in […] Tris-HCl and 10 mM EDTA, pH 7.4. Samples are incubated for 40 min at room temperature and the reaction is stopped by the addition of 25 μl of 1 N HCl. Samples are neutralized with 25 μl of 1 N NaOH prior to quantitation of PGE2 content by radioimmunoassay (Dupont-NEN or Amersham assay kits). Cyclooxygenase activity is defined as the difference between PGE2 levels in samples incubated in the presence of arachidonic acid and ethanol vehicle.
In the assay, inhibition is determined by measuring the amount of prostaglandin E2 (PGE2) synthesized in the presence of arachidonic acid, cyclooxygenase-1 or cyclooxygenase-2 and a putative inhibitor.

COX-2 [1] = biological target: T1, COX-2 (Homo sapiens, UniProt P35354); assay: Whole cell assay for COX-2 using CHO transfected cell line CHO[hCOX-2], inhibition of PGE2 synthesis; assay type: cell-based
T1 construct: incubation of human whole blood with LPS, which induces COX-2; endogenous in cells; host or cells: heparinized fresh whole blood of human volunteers, incubated with LPS for 24 h
T1 sequence (P35354 18-604): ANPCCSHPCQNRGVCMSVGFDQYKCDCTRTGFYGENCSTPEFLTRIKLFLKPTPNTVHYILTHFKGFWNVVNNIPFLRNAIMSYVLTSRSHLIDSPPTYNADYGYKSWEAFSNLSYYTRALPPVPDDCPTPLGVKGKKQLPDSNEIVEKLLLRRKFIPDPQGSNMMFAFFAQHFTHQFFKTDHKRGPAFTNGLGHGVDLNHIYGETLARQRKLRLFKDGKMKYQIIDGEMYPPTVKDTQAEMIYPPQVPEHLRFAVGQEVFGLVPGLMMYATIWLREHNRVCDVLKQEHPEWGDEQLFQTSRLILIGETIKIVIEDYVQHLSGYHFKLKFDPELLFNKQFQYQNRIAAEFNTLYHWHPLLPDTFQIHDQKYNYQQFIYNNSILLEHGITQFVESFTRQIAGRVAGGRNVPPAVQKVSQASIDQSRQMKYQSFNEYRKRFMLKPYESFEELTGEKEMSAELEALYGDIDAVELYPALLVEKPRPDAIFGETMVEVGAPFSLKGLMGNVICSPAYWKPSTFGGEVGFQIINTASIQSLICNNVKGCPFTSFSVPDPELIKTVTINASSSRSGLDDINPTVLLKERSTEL

COX-2 [2] = biological target: T1, COX-2; assay: Human whole blood assay, COX-2 (LPS-induced PGE2 production); assay type: cell-based
Excerpt: As well, platelets in whole blood contain a large amount of the COX-1 enzyme. Immediately following blood clotting, platelets are activated through a thrombin-mediated mechanism. This reaction results in the production of thromboxane B2 (TxB2) via activation of COX-1. Thus, the effect of test compounds on TxB2 levels following blood clotting can be examined and used as an index for COX-1 activity. Therefore, the degree of selectivity by the test compound can be determined by measuring the levels of PGE2 after LPS induction (COX-2) and TxB2 following blood clotting (COX-1) in the same assay.
A. COX-2 (LPS-induced PGE2 production)
Fresh blood is collected in heparinized tubes by venipuncture from both male and female volunteers. The subjects have no apparent inflammatory conditions and have not taken any NSAIDs for at least 7 days prior to blood collection. Plasma is immediately obtained from a 2 mL blood aliquot to use as blank (basal levels of PGE2).

[3] = U937 cell microsomes, PGE2, read-out: COX-1 (IC50 mM) U-937
[4] = CHO[hCOX-2] cells, 10 μM AA, PGE2, read-out: COX-2 (IC50 mM) CHO
[5] = human whole blood, LPS-induced PGE2, 24 h, read-out: COX-2 (IC50 mM) HWB

| Structure (SMILES) | IC50 (COX-1; [3]) [mM] | IC50 (COX-2 [1]) [µM] | IC50 (COX-2 [2]) [mM] | IC50 (COX-2 [1]; [4]) [µM] | IC50 (COX-2 [2]; [5]) [mM] | IC50 (COX-1) [mM] |
| --- | --- | --- | --- | --- | --- | --- |
| CS(=O)(=O)c1ccc(-c2cc(C(F)(F)F)cnc2N2CCC[C@H](CO)C2)cc1 (single isomer, unassigned) [Example 14, (-)-3-(4-Methylsulfonyl)phenyl-2-(3-hydroxymethyl)piperidin-1-yl-5-trifluoromethylpyridine] | 0.003 to 0.01 | 0.03 | 0.0005 |  |  |  |
| CC1(CO)CCCN(c2ncc(C(F)(F)F)cc2-c2ccc(S(C)(=O)=O)cc2)C1 (stereo not drawn) [Example 17, 3-(4-Methylsulfonyl)phenyl-2-(3-hydroxymethyl-3-methyl)piperidin-1-yl-5-trifluoromethylpyridine] | > 0.01 |  |  | 0.4 | 0.0053 |  |
| CS(=O)(=O)c1ccc(-c2cc(C(F)(F)F)cnc2N2CCC(F)CC2)cc1 [Example 26, 2-(4-Fluoro)piperidin-1-yl-3-(4-methylsulfonyl)phenyl-5-trifluoromethylpyridine] | 0.003 to 0.01 |  |  | 0.01 | 0.0017 |  |
| CS(=O)(=O)c1ccc(-c2cc(C(F)(F)F)cnc2N2CCCC(F)(F)C2)cc1 [Example 25, 2-(3,3-Difluoro)piperidin-1-yl-3-(4-methylsulfonyl)phenyl-5-trifluoromethylpyridine] | > 0.01 |  |  | 0.08 | 0.0047 |  |
| CS(=O)(=O)c1ccc(-c2cc(C(F)(F)F)cnc2N2CCCCC2CCO)cc1 (stereo not drawn) [Example 19, 3-(4-Methylsulfonyl)phenyl-2-(2-(2-hydroxyethyl))piperidin-1-yl-5-trifluoromethylpyridine] | > 0.01 |  |  | 0.92 | 0.0032 |  |
| COC[C@@H]1CCCN1c1ncc(C(F)(F)F)cc1-c1ccc(S(C)(=O)=O)cc1 [Example 10, 3-(4-Methylsulfonyl)phenyl-2-((2S)-2-methoxymethyl)pyrrolidin-1-yl-5-trifluoromethylpyridine] | 0.003 to 0.01 |  |  | 0.09 | 0.0031 |  |
| CS(=O)(=O)c1ccc(-c2cc(C(F)(F)F)cnc2N2CCC(F)(F)CC2)cc1 [Example 24, 2-(4,4-Difluoro)piperidin-1-yl-3-(4-methylsulfonyl)phenyl-5-trifluoromethylpyridine] | > 0.01 |  |  | 0.02 | 0.0103 |  |
| CS(=O)(=O)c1ccc(-c2cc(C(F)(F)F)cnc2N2CCOCC2)cc1 [Example 27, 3-(4-Methylsulfonyl)phenyl-2-morpholin-4-yl-5-trifluoromethylpyridine] | > 0.01 |  |  | 0.06 | 0.0036 |  |
| CS(=O)(=O)c1ccc(-c2cc(C(F)(F)F)cnc2N2CCC(=O)CC2)cc1 [Example 20, 3-(4-Methylsulfonyl)phenyl-2-(4-oxo)piperidin-1-yl-5-trifluoromethylpyridine] | > 0.01 |  |  | 0.09 | 0.0104 |  |
| CS(=O)(=O)c1ccc(-c2cc(C(F)(F)F)cnc2N2CCSCC2)cc1 [Example 28, 3-(4-Methylsulfonyl)phenyl-2-thiomorpholin-4-yl-5-trifluoromethylpyridine] | 0.003 to 0.01 |  |  | 0.03 | 0.0014 |  |
| CS(=O)(=O)c1ccc(-c2cc(C(F)(F)F)cnc2N2CCC[C@@H](CO)C2)cc1 (single isomer, unassigned) [Example 15, (+)-3-(4-Methylsulfonyl)phenyl-2-(3-hydroxymethyl)piperidin-1-yl-5-trifluoromethylpyridine] | > 0.01 | 0.03 | 0.0266 |  |  |  |
| CC(=O)OC[C@@H]1CCCN1c1ncc(C(F)(F)F)cc1-c1ccc(S(C)(=O)=O)cc1 [Example 11, 3-(4-Methylsulfonyl)phenyl-2-((2S)-2-acetoxymethyl)pyrrolidin-1-yl-5-trifluoromethylpyridine] | > 0.01 |  |  | 0.07 | < 0.0004 |  |
| CS(=O)(=O)c1ccc(-c2cc(C(F)(F)F)cnc2N2CCCC(O)C2)cc1 (stereo not drawn) [Example 23, 3-(4-Methylsulfonyl)phenyl-2-(3-hydroxy)piperidin-1-yl-5-trifluoromethylpyridine] |  |  |  | 0.03 | 0.0075 | > 0.01 |
| CS(=O)(=O)c1ccc(-c2cc(C(F)(F)F)cnc2N2CCCCC(CO)C2)cc1 (stereo not drawn) [Example 18, 3-(4-Methylsulfonyl)phenyl-2-(3-hydroxymethyl)homopiperidin-1-yl-5-trifluoromethylpyridine] | > 0.01 |  |  | 0.08 | 0.0234 |  |
| CS(=O)(=O)c1ccc(-c2cc(C(F)(F)F)cnc2N2CCCCCC2)cc1 [Example 6, 2-(Homopiperidin-1-yl)-3-(4-methylsulfonyl)phenyl-5-trifluoromethylpyridine] | 0.01 |  |  | 0.004 | 0.006 |  |
| CS(=O)(=O)c1ccc(-c2cc(C(F)(F)F)cnc2N2CCCC(=O)C2)cc1 [Example 21, 3-(4-Methylsulfonyl)phenyl-2-(3-oxo)piperidin-1-yl-5-trifluoromethylpyridine] | > 0.01 |  |  | 0.11 | 0.0053 |  |
| CS(=O)(=O)c1ccc(-c2cc(Cl)cnc2N2CCC[C@H]2CO)cc1 [Example 9, 5-Chloro-3-(4-methylsulfonyl)phenyl-2-((2S)-2-hydroxymethyl)pyrrolidin-1-ylpyridine] | 0.001 to 0.003 |  |  | 0.03 | 0.0001 |  |
| CS(=O)(=O)c1ccc(-c2cc(Cl)cnc2N2CCCCC2)cc1 [Example 3, 5-Chloro-3-(4-methylsulfonyl)phenyl-2-piperidin-1-ylpyridine] | 0.001 to 0.003 |  |  |  |  |  |
| CS(=O)(=O)c1ccc(-c2cc(C(F)(F)F)cnc2N2CCCC2)cc1 [Example 1, 3-(4-Methylsulfonyl)phenyl-2-pyrrolidin-1-yl-5-trifluoromethylpyridine] |  | 0.02 | 0.0097 |  |  | > 0.01 |
| CS(=O)(=O)c1ccc(-c2cc(C(F)(F)F)cnc2N2CCC(O)CC2)cc1 [Example 22, 3-(4-Methylsulfonyl)phenyl-2-(4-hydroxy)piperidin-1-yl-5-trifluoromethylpyridine] | > 0.01 |  |  | 0.03 | 0.0108 |  |
| COC[C@@H]1CCCN1c1ncc(Cl)cc1-c1ccc(S(C)(=O)=O)cc1 [Example 12, 5-Chloro-3-(4-methylsulfonyl)phenyl-2-((2S)-2-methoxymethyl)pyrrolidin-1-ylpyridine] | 0.003 to 0.01 |  |  |  |  |  |
| CS(=O)(=O)c1ccc(-c2cc(Cl)cnc2N2CCCC(CO)C2)cc1 (stereo not drawn) [Example 16, 5-Chloro-3-(4-methylsulfonyl)phenyl-2-(3-hydroxymethyl)piperidin-1-ylpyridine] | > 0.01 |  |  |  |  |  |
